# Where a name gives a salt, the structure may show the parent alone.
# Target: recombinant human cathepsin C (Homo sapiens, UniProt P53634)
# Experiment: Recombinant Cathepsin C In Vitro Assay (cleavage of fluorogenic substrate H-Ser-Tyr-AMC)
# Format: biochemical
# Conditions: 24 pM enzyme, pH 5.5, one hour preincubation with compound at room temperature, read-out: concentration at which 50% cathepsin C inhibition is exhibited
# Procedure: C. Recombinant Cathepsin C In Vitro Assay:
# The activity of recombinant human cathepsin C was measured by the cleavage of a fluorogenic substrate, H-Ser-Tyr-AMC. Briefly, 24 pM cathepsin C was incubated with test compound (e.g. inhibitor) in a buffer consisting of 50 mM sodium acetate, 30 mM sodium chloride, 1 mM CHAPS, 1 mM dithiothreitol, 1 mM EDTA, pH 5.5 at room temperature for one hour. After one hour of incubating test compound with cathepsin C, the activity assay was initiated by the addition of an equal volume of 0.010 mM H-Ser-Tyr-AMC in the same buffer. After one hour, the activity assay was stopped by the addition of ⅕ volume of 100 μM E-64. The reaction product was measured on a fluorescence reader set at an excitation wavelength of 360 nm and emission wavelength of 460 nm and equipped with a 400 nm dichroic mirror.
# recombinant human cathepsin C, sequence (P53634 25-463): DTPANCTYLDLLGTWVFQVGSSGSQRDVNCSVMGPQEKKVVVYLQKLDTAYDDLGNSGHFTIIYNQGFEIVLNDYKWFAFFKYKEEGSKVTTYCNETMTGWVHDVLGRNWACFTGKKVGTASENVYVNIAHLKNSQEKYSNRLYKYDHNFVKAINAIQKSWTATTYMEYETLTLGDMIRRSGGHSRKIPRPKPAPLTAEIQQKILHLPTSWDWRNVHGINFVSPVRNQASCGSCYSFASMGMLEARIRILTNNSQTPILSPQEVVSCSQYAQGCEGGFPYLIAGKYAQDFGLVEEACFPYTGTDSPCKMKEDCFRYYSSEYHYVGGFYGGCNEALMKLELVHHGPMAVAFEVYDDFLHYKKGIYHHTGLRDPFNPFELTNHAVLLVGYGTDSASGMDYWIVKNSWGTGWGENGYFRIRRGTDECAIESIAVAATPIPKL
row,IC50,Structure (SMILES)
1,~100 nM,"C[C@H](N)C(=O)N[C@H](/C=C/C(=O)NCc1ccccc1)CCc1ccccc1 [Example 1, (2E,4S)-4-(L-alanylamino)-6-phenyl-N-(phenylmethyl)-2-hexenamide hydrochloride]"
2,~1000 nM,"C[C@H](N)C(=O)N[C@H](/C=C/C(=O)N(C)C)CCc1ccccc1 [Example 3, (2E,4S)-4-(L-alanylamino)-N,N-dimethyl-6-phenyl-2-hexenamide hydrochloride]"

# — patent US20120142668A1, “CATHEPSIN C INHIBITORS” (priority 2009, published 2012)
